Source: US6905840B1, “Double motor mutant assay for antifungal agents” (Cytokinetics, Inc., priority 2003, dated 2005)

How the values were obtained:
[1] = tested on: kip3-30(ts) kar3Δ (DS752) double mutant; experiment: Benomyl suppression of lethality of the kip3-30(ts) kar3 double mutant, spot growth on YPD; assay type: cell-based, Saccharomyces cerevisiae; details: medium containing a low concentration of benomyl, restrictive temperature (FIG. 1C)
[2] = tested on: kip3-20(ts) dyn1Δ (DS765) double mutant; experiment: Benomyl suppression of lethality of the kip3(ts) dyn1 double mutant, spot growth on YPD; assay type: cell-based, Saccharomyces cerevisiae; details: 37° C., solid YPD medium with 1% DMSO, 5 or 10 μg/ml benomyl, 3 d; little growth in the absence of benomyl
Method: Since one phenotype of the kip3 single mutant and the kip3(ts) dyn1 double mutant is increased microtubule abundance, it was tested whether the microtubule-depolymerizing drug benomyl could suppress the lethality of the kip3(ts) dyn1 double mutant.

## CCCCNC(=O)n1c(NC(=O)OC)nc2ccccc21 [benomyl]
[1]
  lethality of the kip3-30(ts) kar3 double mutant: partially suppressed
[2]
  growth of the kip3(ts) dyn1 double mutant (suppression of lethality): significant growth
